According to the METLIN SMRT retention time set (Domingo-Almenara et al. 2019):

Assay: gradient 5% acetonitrile 3 min, to 50% in 2 min, to 85% in 15 min, held 3 min, 100 µL/min
Settings: column: Zorbax Extend-C18 2.1 x 50 mm; eluents: water / acetonitrile, 0.1% formic acid
Outline: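 Pure standards were analyzed in mixtures of ~100 molecules using HPLC coupled to a quadrupole time-of-flight mass spectrometer, in both positive and negative ionization mode. Separation used a Zorbax Extend-C18 column (2.1 × 50 mm, 1.8 μm) at 100 μL/min, with water and acetonitrile each containing 0.1% formic acid. Dead and dwell volumes were 40 μL and 900 μL, and data were collected over 3 months. Retention time was read from computationally picked adduct peaks, each inspected manually.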

Row | SMILES | RP-LC retention time [s]
1 | CCC(C)NC(=O)C1CCCN(c2nnc(C)c3c(C)n(-c4ccc(Cl)cc4)nc23)C1 (stereo not given) | 746
2 | O=C(NCc1ccc2c(c1)OCO2)C1CCCN(c2nnc3ccccn23)C1 (stereo not given) | 573
3 | CCOc1ccc(CC(=O)N2C[C@@H]3C[C@H]2C[C@@H]3NC(=O)c2ccccc2)cc1 | 762
4 | Cn1nc(-c2nc(Cc3ccccc3)no2)c2c1CCN(C(=O)NC1CCCCC1)C2 | 933
5 | Cc1ccsc1CN1CCCC1c1nnc2n1CCN(C(=O)C(C)C)CC2 (stereo not given) | 585
6 | Cc1noc(-c2cc(=O)n(CC(=O)NCc3ccc(F)cc3Cl)c3ccccc23)n1 | 891
7 | CC1CCN(c2nn(CC(=O)NCCc3ccc(Cl)cc3)c(=O)c3ccccc23)CC1 | 1190
8 | O=C(NC1CCCC1)C1c2ccccc2C(=O)N1Cc1ccc(F)cc1 (stereo not given) | 862
9 | Cc1cnc(C2CN(C(=O)C3(C)CCCCC3)C2)n1Cc1ccncc1 | 566
10 | Cc1ccc(N2CC(NC(=O)NCc3cccs3)CC2=O)cc1C (stereo not given) | 704
11 | Cc1nnc(-c2ccc3ccn(CC(=O)Nc4cccc(F)c4)c3c2)o1 | 808
12 | COc1ccc(-c2nnc(COc3cccc(NC(=O)C(NC(=O)c4ccco4)C(C)C)c3)o2)cc1 (stereo not given) | 1010
13 | Cc1ccc(Nc2c(-c3ccc(Cl)cc3)nc3ccccn23)cc1 | 787
14 | O=c1c2ccccc2c(-c2nc(-c3ccncc3)no2)cn1-c1cccc(F)c1 | 1050
15 | CC(C)c1ccc2c(c1)-c1ccccc1S(=O)(=O)N2CC(=O)NCc1ccccn1 | 757
16 | CCCCC(=O)Nc1nc(-c2ccc(C)cc2C)cs1 | 1100
17 | O=C(Cn1cccc(-c2nc(-c3ccc(Cl)cc3)no2)c1=O)N1CCCc2ccccc21 | 1040
18 | CC(C)(C)c1ccc(-c2noc(Cn3c(=O)n(-c4ccccc4F)c(=O)c4sccc43)n2)cc1 | 1220
19 | O=C(c1ccc(Cl)c(N2C(=O)CCS2(=O)=O)c1)N1CCN(c2ncccn2)CC1 | 641
20 | Cc1ccc(-c2noc(CC(=O)NC(C)c3ccc(C)cc3C)n2)cc1 (stereo not given) | 1080
21 | CCCc1nc2cccnc2n1C1CCN(C(=O)Nc2ccc3c(c2)OCCO3)C1 (stereo not given) | 600
22 | CCc1noc(NC(C)=O)c1-c1ccc(C)c(S(=O)(=O)NCc2ccc3c(c2)OCO3)c1 | 814

Row | SMILES | RP-LC retention time [s]
23 | O=C(NCc1ccccc1F)C1CCCN(c2nc3ccsc3c(=O)n2Cc2ccc(F)cc2)C1 (stereo not given) | 958
24 | Cc1nc2cc3c(cc2n1CC(=O)NC1CCCc2ccccc21)OCCO3 (stereo not given) | 682
25 | COC(=O)c1ccccc1NC(=O)c1noc2c1CCC2 | 1110
26 | O=C(Nc1cccc(-c2nnc3n2CCCC3)c1)c1ccco1 | 640
27 | CN1CCCc2cc(C(CNC(=O)C(=O)NCCC3=CCCCC3)N3CCCC3)ccc21 (stereo not given) | 803
28 | COc1ccc(NC(=O)N2CCN(Cc3cn(C)c4ccccc34)CC2)cc1 | 658
29 | COc1ccccc1NC(=O)N1CCN(Cc2nc3cccnc3n2-c2ccccc2)CC1 | 661
30 | CCN(CC)c1nc2cc(C(=O)OC)ccc2c(=O)n1-c1cc(F)cc(F)c1 | 1180
31 | Cc1c(C(=O)N2CCOCC2)cnn1-c1ccc(-c2nc(C(C)(C)C)no2)cn1 | 942
32 | CCC(C)NC(=O)c1ccc2c(c1)N(C(=O)NC)CC2 (stereo not given) | 652
33 | COCCNC(=O)CSc1nccc2c1ccn2Cc1ccc(F)cc1 | 668
34 | Cn1cccc1C(=O)N1CCC(COc2ccc(C(=O)N3CCCCC3)cc2)CC1 | 897
35 | CCOc1ccccc1CN1C(=O)c2ccccc2C1C(=O)NC(C)CC (stereo not given) | 899
36 | CCCN1C(=O)c2[nH]nc(-c3ccc(OC)cc3)c2C1c1cccnc1 (stereo not given) | 656
37 | Cn1cnc(S(=O)(=O)N2CCOc3ccc(CN4CCc5ccccc5C4)cc3C2)c1 | 518
38 | Cc1ccc(-c2csc(-n3nc(C)c(CC(=O)NCc4ccccc4)c3C)n2)cc1 | 1160
39 | Cc1ccc(N2C(=O)C3N=NN(Cc4nc(-c5ccc(OC(C)C)cc5)no4)C3C2=O)cc1Cl (stereo not given) | 1170
40 | CCn1c(=O)c(N2CCN(C(=O)Nc3ccc(Br)cc3)CC2)nc2ccccc21 | 1030
41 | O=C(c1cc(=O)c2ccccc2o1)N1CC2CC(C1)c1cccc(=O)n1C2 (stereo not given) | 598
42 | CC1=C(c2ccc(F)cc2)S(=O)(=O)N=C1N1CCC(C(=O)NCCc2ccco2)CC1 | 802
43 | CCn1cc(S(=O)(=O)N2CCCn3nc(-c4ccncc4)cc3C2)cn1 | 577
44 | COC(=O)C(NC(=O)Nc1cccn2c(C)nnc12)c1ccccc1 (stereo not given) | 678

Row | SMILES | RP-LC retention time [s]
45 | COc1ccccc1N1CCN(c2ncc(C(=O)Nc3ccccc3)c(N)n2)CC1 | 742
46 | COCCOC(=O)C1=C(C)NC2=C(C(=O)C(C(=O)OC)C(C)C2)C1c1cccc(F)c1 (stereo not given) | 832
47 | CCN1CCC2(CC1)OC(=O)C(C)=C2C(=O)Nc1cc(Cl)c(OC)cc1OC | 643
48 | CCNC(=O)N1CCc2c(c(-c3nc(Cc4ccccc4)no3)nn2C)C1 | 742
49 | Cc1c(Cl)cccc1S(=O)(=O)N1CCCC1c1nc(-c2ccc(F)cc2)no1 (stereo not given) | 1220
50 | Cc1cc(C)cc(-n2ccnc(NC(=O)Nc3ccc(C)c(F)c3)c2=O)c1 | 1140
51 | O=C(Nc1cccc2c(=O)cc(-c3nn[nH]n3)oc12)c1ccc(OCCCCc2ccccc2)cc1 | 1180
52 | O=C(NCCc1cccs1)C1CCCN(c2nc3ccsc3c(=O)n2Cc2ccccc2)C1 (stereo not given) | 949
53 | Cc1nnc(-c2ccc3ccn(CC(=O)NCc4cccs4)c3c2)o1 | 729
54 | CCc1nn2c(CNS(=O)(=O)c3ccc(C)cc3)c(-c3ccccc3)nc2s1 | 973
55 | c1ccc(-c2nc(C3CC3)no2)c(OC2CNC2)c1 | 614
56 | Cc1cc(F)ccc1NS(=O)(=O)c1cc2n(c1)CCN(C(C)C)C2=O | 773
57 | Cc1cc(N2CCCC2)nc(N2CCN(C(=O)C3CCCC3)CC2)n1 | 670
58 | CC(=O)Nc1cccc(C(=O)NCCc2c[nH]c3ccc(F)cc23)c1 | 711
59 | COCCNc1nc(-c2ccc(C)cc2)nnc1C | 608
60 | COc1ccc(S(=O)(=O)N2CCCC(C(=O)N(C)Cc3ccccc3)C2)cc1OC (stereo not given) | 859
61 | COC(=O)c1c(C)[nH]c(C(=O)N2CCC(CC(=O)NCCC(C)N3CCCCCC3)CC2)c1C (stereo not given) | 604
62 | CCOc1ccc(CC(=O)NC2(c3nc(CC)no3)CCCCC2)cc1 | 940
63 | O=C(CCc1nnn2c1CN(C(=O)c1ccc(F)cc1)CC2)NC1CC1 | 617
64 | O=C(CN1CCCc2nc(C3CC3)ncc2C1=O)NC1CC1 | 604
65 | CC1(C(=O)NCc2ccccc2)CN(S(C)(=O)=O)CC(=O)N1Cc1cccc(Br)c1 (stereo not given) | 815
